Measurements: patent US20160061820A1, “IN VITRO BILIARY EXCRETION ASSAY” (HUREL CORPORATION, priority 2014, published 2016)
Read-outs that look alike come from different tables or passages of the source.

Tests used:
bile canaliculi = assay: Disruption of canaliculi, CDFDA staining (Example 3); format: cell-based, human; settings: 5 uM CDFDA with 10 uM LatA, 20 min
Description: In the second method, the cultures were exposed to buffer containing latranculin A (LatA). The LatA functions to disrupt microfilament organization, a key step in tight junction formation, which allows bile present in the canaliculi to escape. Cells were first washed twice in HBSS buffer with Ca+. Cells were then incubated with 5 uM CDFDA in HBSS buffer with Ca+ and 10 uM LatA for 20 min. Cells were then washed two times in HBSS buffer with Ca+.

in vitro [1] = settings: hepatocytes
Description: (§1) The single well method of assessing biliary clearance of the invention was used.
(§2) A coculture was exposed to each tested compound in culture media at the indicated concentration for 20 minutes. The media was then removed (collection #1) and stored for analysis of remaining compound. The cultures were washed twice with buffer solution (collections #2 and #3) and each wash solution was stored for analysis of remaining taurcholate. […] This releases taurcholate accumulated in the bile of the canaliculi. At the end of the incubation period the culture media was collected (collection #4). The cells were then exposed to deionized water which functions to disrupt the cellular membrane and release the compound accumulated in the cellular compartment (collection #5). Because any compound present in the canaliculi was already collected in collection #4, collection #5 contains any compound present in the cell but not including any present in the canaliculi.
(§3) In teach figure the measured amount of compound in bile and the measured amount of compound in the cytoplasm are presented together as two parts of a single bar on the left side of the figure. The measured value for the bile is also shown as a bar on the right side of the figure. Comparing the height of the right bar (bile) to the height of the composite left bar (total of cytoplasm+bile) allows visulation of the portion of the compound that accumulated in the bile. […] Equation 2 was used to calculate the BEI for each compound in this system. The data were used to calculate the Biliary Clearance (Equation 1) and BEI (Equation 2) for each tested compound.

[2] = tested on: cryopreserved human hepatocytes in sandwich culture; settings: cited from earlier work
in vitro [3] = settings: rat, hepatocytes
Description: as §1
(§4) The media was then removed (collection #1) and stored for analysis of remaining compound. […] At the end of the incubation period the culture media was collected (collection #4). The cells were then exposed to deionized water which functions to disrupt the cellular membrane and release the compound accumulated in the cellular compartment (collection #5). Because any compound present in the canaliculi was already collected in collection #4, collection #5 contains any compound present in the cell but not including any present in the canaliculi. […] The data is presented in FIG. 9-13 using the same format as used in FIGS. 4-8.
(§5) Equation 2 was used to calculate the BEI for each compound in this system.

[4] = tested on: cultured human hepatocytes; assay: in vitro
Description: as §1, §2, §3

cultured rat hepatocytes = assay: in vitro
Description: as §1, §4, §5

[5] = Lundquist (2014); cited from earlier work
[6] = tested on: primary human hepatocytes grown in a hepatocyte-stromal cell coculture
Description: (§6) Accumulation in the bile and accumulation in the cell were measured separately in a single well of a coculture plate. The measured values for bile accumulation and cell accumulation are shown as separately shaded portions of a single bar. The error bars represent a single standard deviation.
as §6, with “FIG. 18 compares the results of three independent experiments measuring biliary uptake of pravastatin by primary human hepatocytes grown in a hepatocyte-stromal cell coculture. Accumulation” for “Accumulation”

[7] = Bi et al. (2006), two culture method

C/C1=C/C(=O)O[C@@H]2C[C@@H](CC[C@H](C)/C=C\C=C\CC1)O[C@@](O)([C@@H]1CSC(=O)N1)C2 [LatA, latrunculin A]
CDA staining of canaliculi (bile canaliculi): no CDA staining was apparent

C[C@H]1O[C@@H](O[C@H]2[C@@H](O)C[C@H](O[C@H]3[C@@H](O)C[C@H](O[C@H]4CC[C@@]5(C)[C@H](CC[C@@H]6[C@@H]5C[C@@H](O)[C@]5(C)[C@@H](C7=CC(=O)OC7)CC[C@]65O)C4)O[C@@H]3C)O[C@@H]2C)C[C@H](O)[C@@H]1O [digoxin]
microsomal CLint (in vitro [1]; human): 0.4 µL/min/mg | Uptake Rate [2, 7]: 0.7-1.5 pmol/min/mg protein | microsomal CLint (in vitro [3]): 0.31 ± 0.02 µL/min/mg

C[C@]12CC[C@@H]3c4ccc(O)cc4CC[C@H]3[C@@H]1CC[C@@H]2O[C@@H]1O[C@H](C(=O)O)[C@@H](O)[C@H](O)[C@H]1O [estradiol-glucuronide]
microsomal CLint [4]: 0.3 µL/min/mg | Biliary Excretion Index (BEI) [2, 7]: 37% | Uptake Rate [2]: 2.2 pmol/min/mg protein | microsomal CLint [2]: 1.8 µL/min/mg | Rat In Vitro PK Intrinsic CLint, biliary (cultured rat hepatocytes; rat, hepatocytes): 2.7 ± 0.1 μl/min/mg protein

CC[C@H](C)C(=O)O[C@H]1C[C@H](O)C=C2C=C[C@H](C)[C@H](CC[C@@H](O)C[C@@H](O)CC(=O)O)[C@H]21 [pravastatin]
microsomal CLint (in vitro [1]; human): 0.38 µL/min/mg | microsomal CLint (in vitro [3]): 0.29 ± 0.02 µL/min/mg

CC(C)c1nc(N(C)S(C)(=O)=O)nc(-c2ccc(F)cc2)c1/C=C/[C@@H](O)C[C@@H](O)CC(=O)O [rosuvastatin]
Rat In Vivo PK In Vivo CLbiliary [5]: 48.0 ± 10.8 mL/min/kg | microsomal CLint (in vitro [1]; human): 6 µL/min/mg | Biliary Excretion Index (BEI) [2, 7]: 43-58% | Uptake Rate [2, 7]: 15-26 pmol/min/mg protein | Fold Difference (cultured rat hepatocytes; rat): 0.6 | microsomal CLint (in vitro [3]): 3.5 ± 0.3 µL/min/mg

C[C@H](CCC(=O)NCCS(=O)(=O)O)[C@H]1CC[C@H]2[C@@H]3[C@H](O)C[C@@H]4C[C@H](O)CC[C@]4(C)[C@H]3C[C@H](O)[C@]12C [taurocholate, taurocholic acid]
Bile accumulation, Mean ([6]; Exp. 1): 541.90 | Bile accumulation, Mean ([6]; Exp. 2): 556.08 | Bile accumulation, Mean ([6]; Exp. 3): 543.31 | microsomal CLint (in vitro [1]): 23 µL/min/mg | BEI (cultured rat hepatocytes; rat hepatocyte coculture, compound 2 uM (pravastatin 5 uM), 20 min, latrunculin 5 uM 30 min): 60% | Rat In Vitro PK Predicted CLbiliary (cultured rat hepatocytes; scaled from Clint,bile with 200 mg protein/g liver and 40 g liver/kg): 67.1 ± 4.8 mL/min/kg
